ChEMBL document CHEMBL2040778, “The binding of C5-alkynyl and alkylfurano[2,3-d]pyrimidine glucopyranonucleosides to glycogen phosphorylase b: synthesis, biochemical and biological assessment” (Eur J Med Chem, 2012)

Legend:
[1] = molecular target: Glycogen phosphorylase, muscle form, Oryctolagus cuniculus (UniProt P00489); assay: Inhibition of glycogen phosphorylase b
[2] = molecular target: T1, Glycogen phosphorylase, muscle form (Oryctolagus cuniculus, UniProt P00489); assay: Competitive inhibition of rabbit skeletal muscle glycogen phosphorylase b using Glc-1-P as substrate; design: species or system Muscle tissue
T1 sequence (P00489 whole entry): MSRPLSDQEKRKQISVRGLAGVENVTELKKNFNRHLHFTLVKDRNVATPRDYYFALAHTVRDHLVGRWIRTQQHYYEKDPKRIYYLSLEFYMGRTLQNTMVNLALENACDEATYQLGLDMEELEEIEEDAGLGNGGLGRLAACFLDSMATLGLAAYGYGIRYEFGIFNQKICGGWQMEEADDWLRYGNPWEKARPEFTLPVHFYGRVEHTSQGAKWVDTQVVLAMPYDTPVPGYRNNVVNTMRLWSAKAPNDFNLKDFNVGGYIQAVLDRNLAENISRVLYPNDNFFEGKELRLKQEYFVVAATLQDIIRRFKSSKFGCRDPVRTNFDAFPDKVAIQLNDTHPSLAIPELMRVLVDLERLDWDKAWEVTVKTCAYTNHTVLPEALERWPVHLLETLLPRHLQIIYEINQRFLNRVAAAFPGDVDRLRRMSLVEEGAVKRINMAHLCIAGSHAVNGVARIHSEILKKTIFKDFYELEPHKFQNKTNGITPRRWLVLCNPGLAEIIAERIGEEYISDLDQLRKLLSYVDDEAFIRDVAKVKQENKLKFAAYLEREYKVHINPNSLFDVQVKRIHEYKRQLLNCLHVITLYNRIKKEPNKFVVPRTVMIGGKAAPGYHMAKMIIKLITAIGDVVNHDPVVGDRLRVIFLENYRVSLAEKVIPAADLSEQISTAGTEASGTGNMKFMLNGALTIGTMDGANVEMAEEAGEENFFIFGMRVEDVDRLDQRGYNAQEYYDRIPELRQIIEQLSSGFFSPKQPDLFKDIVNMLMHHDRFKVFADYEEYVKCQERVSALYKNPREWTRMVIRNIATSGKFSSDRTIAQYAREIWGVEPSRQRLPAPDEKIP

[3] = test system: HepG2; assay: Cytotoxicity against human HepG2 cells up to 150 uM after 6 hrs by MTT assay; format: cell-based; settings: hepg2, 6 h
[4] = molecular target: T2, Glycogen phosphorylase, muscle form (Homo sapiens, UniProt P11217); assay: Inhibition of glycogen phosphorylase b in human HepG2 cells after 3 hrs; format: cell-based
T2 sequence (P11217 whole entry): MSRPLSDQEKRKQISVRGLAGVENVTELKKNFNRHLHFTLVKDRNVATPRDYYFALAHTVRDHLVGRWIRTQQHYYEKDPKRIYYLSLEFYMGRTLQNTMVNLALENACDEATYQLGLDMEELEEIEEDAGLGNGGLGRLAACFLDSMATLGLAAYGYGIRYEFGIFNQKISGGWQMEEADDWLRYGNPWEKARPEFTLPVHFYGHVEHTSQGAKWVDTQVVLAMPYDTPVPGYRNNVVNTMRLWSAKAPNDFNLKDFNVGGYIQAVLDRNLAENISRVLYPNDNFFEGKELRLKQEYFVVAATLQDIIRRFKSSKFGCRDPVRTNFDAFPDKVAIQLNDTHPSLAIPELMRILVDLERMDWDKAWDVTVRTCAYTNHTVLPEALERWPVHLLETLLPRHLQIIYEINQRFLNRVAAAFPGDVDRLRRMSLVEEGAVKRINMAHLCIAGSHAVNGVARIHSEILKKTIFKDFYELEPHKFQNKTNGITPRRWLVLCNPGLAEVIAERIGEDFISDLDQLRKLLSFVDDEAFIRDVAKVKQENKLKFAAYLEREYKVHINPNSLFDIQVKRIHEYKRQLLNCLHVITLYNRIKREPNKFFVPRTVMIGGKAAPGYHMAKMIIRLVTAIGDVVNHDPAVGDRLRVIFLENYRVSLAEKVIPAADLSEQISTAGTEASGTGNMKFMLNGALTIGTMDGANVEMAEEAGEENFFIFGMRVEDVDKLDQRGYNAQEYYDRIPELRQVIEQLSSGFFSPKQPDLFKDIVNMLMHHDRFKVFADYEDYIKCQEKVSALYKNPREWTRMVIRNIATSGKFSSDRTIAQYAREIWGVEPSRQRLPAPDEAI

[5] = test system: HepG2; assay: Cytotoxicity against human HepG2 cells assessed as decrease in viability up to 500 uM after 6 hrs by MTT assay relative to control; format: cell-based; settings: hepg2, 6 h

## O=c1[nH]c(=O)n([C@@H]2O[C@H](CO)[C@@H](O)[C@H](O)[C@H]2O)cc1I
[1]
  Ki: 1.94 µM

## CCCC#Cc1cn([C@@H]2O[C@H](CO)[C@@H](O)[C@H](O)[C@H]2O)c(=O)[nH]c1=O
[2]
  Ki: 303 µM

## CCCCCC#Cc1cn([C@@H]2O[C@H](CO)[C@@H](O)[C@H](O)[C@H]2O)c(=O)[nH]c1=O
[2]
  IC50: 6100 µM

## C#Cc1cn([C@@H]2O[C@H](CO)[C@@H](O)[C@H](O)[C@H]2O)c(=O)[nH]c1=O
[3]
  Activity: Non-toxic
[4]
  IC50: 291 µM
[5]
  Activity: 10%
[2]
  Ki: 4.7 µM

## CCCc1cc2cn([C@@H]3O[C@H](CO)[C@@H](O)[C@H](O)[C@H]3O)c(=O)nc2o1
[2]
  Ki: 32.4 µM

## CCCCCc1cc2cn([C@@H]3O[C@H](CO)[C@@H](O)[C@H](O)[C@H]3O)c(=O)nc2o1
[2]
  Ki: 33.4 µM

## O=c1[nH]c(=O)n([C@@H]2O[C@H](CO)[C@@H](O)[C@H](O)[C@H]2O)cc1Cl
[1]
  Ki: 1.02 µM
[2]
  Ki: 1.02 µM

## O=c1[nH]c(=O)n([C@@H]2O[C@H](CO)[C@@H](O)[C@H](O)[C@H]2O)cc1Br
[1]
  Ki: 3.27 µM
